# Like-named read-outs stand apart in the source and are kept apart here.
# Experiments:
# APH1BC ^−/− mice [1] = assay: Locomotor activity (infrared beam breaks in activity monitor) after amphetamine; conditions: 3 μg/kg intraparietally
# APH1BC ^−/− mice [2] = assay: Open field locomotor activity (total distance traveled) after apomorphine; conditions: 2 μg/kg subcutaneously; for activity at 0.002 mg/kg: Mus musculus, sc, 10 min
# APH1BC^−/− mice = assay: Prepulse inhibition (PPI) of acoustic startle after antipsychotic injection; format: in vivo
# Excerpt: Schizophrenia is a complex disease characterized by delusions and hallucinations (so-called positive symptoms), affective and social disturbances (negative symptoms), but also by cognitive deficits. Disturbed information processing, and more specifically an impairment in the filtering of irrelevant stimuli, is thought to contribute to the disease phenotype by causing “sensory flooding”, which may lead to cognitive fragmentation. A psychophysical measure of (pre-attentive) information filtering is “prepulse inhibition” (PPI). […] The strength of this reflex response is read out by recording the amplitude of the eye-blink response that is part of the startling reaction. This way, the amplitude of the eye-blink response is a measure of the efficiency of the coupling of the sensory stimulus to the motor reflex programme. If the startle stimulus is preceded by a weak, non-startling “prepulse stimulus”, e.g. a tone just above background noise levels, the amplitude of the eye-blink response to the startle stimulus is strongly diminished in normal individuals. […] The “% prepulse inhibition (PPI)” is quantified as: 100−((A2/A1)*100), with A1 being the amplitude of the response to the startle stimulus and A2 the amplitude of the response to the same startle stimulus preceded by the prepulse stimulus. […] In rodents the motor reaction to a startle stimulus is quantified by placing mice into a restraining tube in a sound-proof cabin mounted onto a pressure sensitive platform. Upon presentation of the startling sound, the mouse flinches and the pressure it exerts via its limbs is recorded quantitatively as a ballistogram that can be analysed using appropriate software. This way, the effect of a preceding prepulse on the flinching reaction to a startle stimulus can be calculated.
# For all trials, background noise was 70 db, the prepulse preceded the startle stimulus by 100 ms, the prepulse stimuli lasted 20 ms and the startle stimuli lasted 60 ms. […] For each of the four different combinations of prepulse and startle stimulus, the % PPI was calculated using the formula described above. […]
smiles,measurement,setting,value
"CC(N)Cc1ccccc1 (stereo not shown) [amphetamine, Amphetamine]","reaction of APH1BC ^−/− mice versus wild-type littermates (rise in activity, maximal activity, total activity over two hours)","APH1BC ^−/− mice [1]; p=0,06 for genotype effect",reacted more strongly
same,time of peak locomotor activity after injection,APH1BC ^−/− mice [1]; […],35 to 40 min
same,locomotor activity after drug administration,"APH1BC ^−/− mice [1]; […], monitored 2 h after injection",rose strongly and continuously
CN1CCc2cccc3c2[C@H]1Cc1ccc(O)c(O)c1-3 [apomorphine],reaction of APH1BC ^−/− mice versus wild-type littermates,"APH1BC ^−/− mice [2]; p=0,045 two-tailed student's t test",reacted more strongly
same,activity at 0.002 mg/kg,"APH1BC ^−/− mice [2]; read-out: residual activity (distance APO/distance placebo)*100%, APH1BC −/− mice, 10 min open field",27%
same,activity at 0.002 mg/kg,"APH1BC ^−/− mice [2]; read-out: residual activity (distance APO/distance placebo)*100%, wild type mice, 10 min open field",50%
same,effect on locomotion (total distance traveled in open field),"APH1BC ^−/− mice [2]; […], 10 min open field, p<0,001 for treatment effect",strong inhibition of locomotion
"O=C(CCCN1CCC(O)(c2ccc(Cl)cc2)CC1)c1ccc(F)cc1 [haloperidol, Haloperidol]",PPI in APH1BC^−/− mice relative to wild type levels,"APH1BC^−/− mice; APH1BC^−/− mice, pp 74/p110 and pp 78/p110 trials, 1 μg/kg injected intra-parietally, PPI measured 45 min after injection",essentially normalized
same,effects on (improvements of) PPI in the p100 trials,"APH1BC^−/− mice; p100 trials, 1 μg/kg intra-parietally, 45 min after injection",small but insignificant effects
same,wild type PPI levels compared to placebo-injected animals,"APH1BC^−/− mice; wild type littermates, pp74/p110 and pp 78/p110 trials, 1 μg/kg intra-parietally, 45 min after injection",significantly elevated
